The values that follow come from patent US10450356B2, “PRAME derived peptides and immunogenic compositions comprising these” (Academisch Ziekenhuis Leiden H.O.D.N. LUMC, priority 2007, dated 2019).

This experiment addresses T1, 20S proteasomes purified from a B-LCL cell line (immunoproteasomes) (Homo sapiens, UniProt P28062+P28065+P40306).
T1 construct: 20S proteasomes were purified from a B-LCL cell line; endogenous in cells; purified after Groettrup et al. 1995
The experiment is described as follows: In vitro proteasome mediated cleavage analysis. The conditions noted are these: for Processing C-term: generation by proteasome-mediated digestion of fragments containing the correct C-terminus: 1 h digestion; for Intact Fragment: intact epitope found in digestion fragments: after 1 h digestion; for C-term. generation: generation of C-terminus of the epitope after 1 h digestion; for Intact in fragment: intact epitope found in digestion fragments after 1 h digestion. The arrangement: key to Intact in fragment / Intact Fragment: intact epitope found in digestion fragments: (+), present; (-), not present; key to Processing C-term: generation by proteasome-mediated digestion of fragments containing the correct C-terminus: (++) fragments present for >5%; (+) present for <5%; (-) no fragments containing the C-term. were found. It is filed as biochemical. On the procedure: 20S proteasomes were purified from a B-LCL cell line as described by Groettrup et al. (J. Biol. Chem. 270:23808-23815; 1995). This cell type is known to contain immunoproteasomes. High LMP2 and 7 content was confirmed by 2-D immuno-blotting. To assess kinetics, digestions were performed with different incubation periods. Peptides (27 mers, 20 μg) were incubated with 1 μg of purified proteasome at 37° C. for 1 h, 4 h and 24 h in 300 μl proteasome digestion buffer as described (Eggers, et al. 1995. J. Exp. Med. 182:1865). Trifluoroacetic acid was added to stop the digestion and samples were stored at −20° C. before mass spectrometric analysis.
Electrospray ionization mass spectrometry was performed on a hybrid quadrupole time-of-flight mass spectrometer, a Q-TOF (Micromass), equipped with an on-line nanoelectrospray interface with an approximate flow rate of 250 nL/min. Injections were done with a dedicated micro/nano HPLC autosampler, the FAMOS (LC Packings). Digestion solutions were diluted five times in water-methanol-acetic acid (95:5:1, v/v/v), and trapped on the precolumn (MCA-300-05-C8; LC Packings) in water-methanol-acetic acid (95:5:1, v/v/v). Washing of the precolumn was done for 3 min to remove the buffers present in the digests. Subsequently, the trapped analytes were eluted with a steep gradient going from 70% B to 90% B in 10 min, with a flow of 250 nl/min (A: water-methanol-acetic acid (95:5:1, v/v/v); B: water-methanol-acetic acid (10:90:1, v/v/v)). This low elution rate allows for a few additional MS/MS experiments if necessary during the same elution. Mass spectra were recorded from mass 50-2000 Da every second. The resolution allows direct determination of the monoisotopic mass, also from multiple charged ions. The peaks in the mass spectrum were searched in the digested precursor peptide using the Biolynx/proteins software (Micromass). The intensity of the peaks in the mass spectra was used to establish the relative amounts of peptides generated by proteasome digestion.

Take `CC(C)C[C@H](NC(=O)[C@@H](NC(=O)[C@H](CCC(N)=O)NC(=O)[C@H](CO)NC(=O)[C@H](Cc1c[nH]cn1)NC(=O)[C@H](CCCNC(=N)N)NC(=O)CNC(=O)[C@H](CC(=O)O)NC(=O)[C@H](Cc1ccccc1)NC(=O)[C@H](C)N)[C@@H](C)O)C(=O)O`: the “Processing C-term: generation by proteasome-mediated digestion of fragments containing the correct C-terminus” value is given as “+ ((+) present for <5%)”, the “Intact Fragment: intact epitope found in digestion fragments” value (from here on “Intact Fragment: intact epitope found”) is reported as “+”, the C-term. generation result is on record as “+ (low abundant (+) present for <5%)” and the Intact in fragment result is “+”.
As for `CC[C@H](C)[C@H](NC(=O)[C@H](C)N)C(=O)N[C@@H](C)C(=O)N[C@@H](C)C(=O)N[C@@H](CC(C)C)C(=O)N[C@@H](CCC(=O)O)C(=O)N[C@@H](CC(C)C)C(=O)N[C@@H](CC(C)C)C(=O)N1CCC[C@H]1C(=O)N[C@@H](CCCNC(=N)N)C(=O)O`, the “Processing C-term: generation by proteasome-mediated digestion of fragments containing the correct C-terminus” value was “-” and the “Intact Fragment: intact epitope found” value is “-”.
With `CC[C@H](C)[C@H](NC(=O)[C@H](C)NC(=O)[C@H](CC(C)C)NC(=O)[C@H](C)N)C(=O)N[C@@H](C)C(=O)N[C@@H](C)C(=O)N[C@@H](CC(C)C)C(=O)N[C@@H](CCC(=O)O)C(=O)N[C@@H](CC(C)C)C(=O)O`, the “Processing C-term: generation by proteasome-mediated digestion of fragments containing the correct C-terminus” value was “-” and the “Intact Fragment: intact epitope found” value is “-”.
Turning to `CC[C@H](C)[C@H](NC(=O)[C@H](C)NC(=O)[C@H](CC(C)C)NC(=O)[C@H](C)N)C(=O)N[C@@H](C)C(=O)N[C@@H](C)C(=O)N[C@@H](CC(C)C)C(=O)N[C@@H](CCC(=O)O)C(=O)N[C@@H](CC(C)C)C(=O)N[C@@H](CC(C)C)C(=O)O`, the “Processing C-term: generation by proteasome-mediated digestion of fragments containing the correct C-terminus” value is “-” and the “Intact Fragment: intact epitope found” value was “-”.
As for `CSCC[C@H](NC(=O)[C@H](C)N)C(=O)N[C@H](C(=O)N[C@@H](CCC(N)=O)C(=O)N[C@@H](C)C(=O)N[C@@H](Cc1c[nH]c2ccccc12)C(=O)N1CCC[C@H]1C(=O)N[C@@H](Cc1ccccc1)C(=O)N[C@H](C(=O)N[C@@H](CS)C(=O)O)[C@@H](C)O)C(C)C`, the “Processing C-term: generation by proteasome-mediated digestion of fragments containing the correct C-terminus” value is reported as “-” and the “Intact Fragment: intact epitope found” value is “-”.
In the case of `CC(C)C[C@H](NC(=O)[C@H](CCC(=O)O)NC(=O)[C@H](CCCNC(=N)N)NC(=O)[C@H](CC(C)C)NC(=O)[C@H](CCCNC(=N)N)NC(=O)[C@H](C)NC(=O)[C@H](Cc1c[nH]cn1)NC(=O)[C@H](CC(C)C)NC(=O)[C@H](Cc1ccc(O)cc1)NC(=O)[C@H](C)N)C(=O)O`, the “Processing C-term: generation by proteasome-mediated digestion of fragments containing the correct C-terminus” value is on record as “+ ((+) present for <5%)”, the “Intact Fragment: intact epitope found” value was “+”, the C-term. generation entry is “+ (low abundant (+) present for <5%)” and the Intact in fragment result was “+”.
Regarding `C[C@@H](O)[C@H](NC(=O)[C@H](CCCNC(=N)N)NC(=O)[C@H](CC(=O)O)NC(=O)CNC(=O)[C@H](CS)NC(=O)[C@H](Cc1c[nH]cn1)NC(=O)[C@@H]1CCCN1C(=O)[C@@H](N)CS)C(=O)N[C@@H](Cc1ccccc1)C(=O)N[C@@H](Cc1ccc(O)cc1)C(=O)O`, the “Processing C-term: generation by proteasome-mediated digestion of fragments containing the correct C-terminus” value was “-” and the “Intact Fragment: intact epitope found” value was “-”.
Regarding `CC(C)C[C@H](NC(=O)[C@H](CC(C)C)NC(=O)[C@H](CO)NC(=O)[C@H](CCC(N)=O)NC(=O)CNC(=O)[C@H](C)NC(=O)[C@H](CC(C)C)NC(=O)[C@@H](N)CCC(=O)O)C(=O)N[C@@H](CCCCN)C(=O)O`, the “Processing C-term: generation by proteasome-mediated digestion of fragments containing the correct C-terminus” value is given as “-” and the “Intact Fragment: intact epitope found” value was “-”.
On to `CSCC[C@H](NC(=O)[C@H](Cc1ccccc1)NC(=O)[C@H](CC(C)C)NC(=O)[C@@H]1CCCN1C(=O)[C@@H]1CCCN1C(=O)[C@H](Cc1ccccc1)NC(=O)[C@@H](N)CC(C)C)C(=O)N[C@@H](C)C(=O)N[C@@H](C)C(=O)N[C@@H](Cc1ccccc1)C(=O)O`, for which the “Processing C-term: generation by proteasome-mediated digestion of fragments containing the correct C-terminus” value is listed as “++ ((++) fragments present for >5%)” and the C-term. generation result is on record as “++ (abundant (++) present for >5%)”.
With `CSCC[C@H](NC(=O)[C@H](CO)NC(=O)[C@@H]1CCCN1C(=O)[C@H](CCCNC(=N)N)NC(=O)CNC(=O)[C@H](CC(C)C)NC(=O)[C@H](CCC(=O)O)NC(=O)[C@H](CS)NC(=O)[C@H](CC(C)C)NC(=O)[C@@H](N)CC(C)C)C(=O)O`, the “Processing C-term: generation by proteasome-mediated digestion of fragments containing the correct C-terminus” value was “-” and the “Intact Fragment: intact epitope found” value is given as “-”.
In the case of `CC[C@H](C)[C@H](NC(=O)[C@H](C)NC(=O)[C@H](CC(C)C)NC(=O)[C@H](C)NC(=O)[C@H](CCC(=O)O)NC(=O)[C@H](CC(=O)O)NC(=O)[C@H](CCCCN)NC(=O)[C@H](CC(C)C)NC(=O)[C@@H](N)CC(C)C)C(=O)O`, the “Processing C-term: generation by proteasome-mediated digestion of fragments containing the correct C-terminus” value is “++ ((++) fragments present for >5%)”, the “Intact Fragment: intact epitope found” value was “+”, the C-term. generation entry is “++ (abundant (++) present for >5%)” and the Intact in fragment entry is reported as “+”.
Regarding `CC(C)C[C@H](NC(=O)[C@H](CCCNC(=N)N)NC(=O)[C@H](C)NC(=O)[C@H](Cc1c[nH]cn1)NC(=O)[C@H](CC(C)C)NC(=O)[C@H](Cc1ccc(O)cc1)NC(=O)[C@H](C)NC(=O)[C@H](CC(C)C)NC(=O)[C@@H](N)CCCNC(=N)N)C(=O)O`, the “Processing C-term: generation by proteasome-mediated digestion of fragments containing the correct C-terminus” value was “++ ((++) fragments present for >5%)”, the “Intact Fragment: intact epitope found” value is listed as “+”, the C-term. generation result is recorded as “++ (abundant (++) present for >5%)” and the Intact in fragment entry is “+”.
In the case of `CC(C)C[C@H](NC(=O)[C@H](CCC(=O)O)NC(=O)[C@H](CS)NC(=O)[C@H](CC(C)C)NC(=O)[C@H](CC(C)C)NC(=O)[C@H](CCC(=O)O)NC(=O)[C@H](CCCNC(=N)N)NC(=O)[C@H](CC(C)C)NC(=O)[C@@H](N)CCCNC(=N)N)C(=O)O`, the “Processing C-term: generation by proteasome-mediated digestion of fragments containing the correct C-terminus” value was “-” and the “Intact Fragment: intact epitope found” value is on record as “-”.
`CC(C)C[C@H](NC(=O)[C@H](CO)NC(=O)[C@H](CCC(N)=O)NC(=O)CNC(=O)[C@H](C)NC(=O)[C@H](CC(C)C)NC(=O)[C@H](CCC(=O)O)NC(=O)[C@@H](NC(=O)[C@H](CC(C)C)NC(=O)[C@@H](N)CCCNC(=N)N)C(C)C)C(=O)O`: the “Processing C-term: generation by proteasome-mediated digestion of fragments containing the correct C-terminus” value was “-” and the “Intact Fragment: intact epitope found” value is on record as “-”.
Take `CC[C@H](C)[C@H](NC(=O)[C@H](C)NC(=O)[C@H](CC(C)C)NC(=O)[C@H](C)NC(=O)[C@H](CCC(=O)O)NC(=O)[C@H](CC(=O)O)NC(=O)[C@H](CCCCN)NC(=O)[C@H](CC(C)C)NC(=O)[C@H](CC(C)C)NC(=O)[C@@H](N)CO)C(=O)O`: the “Processing C-term: generation by proteasome-mediated digestion of fragments containing the correct C-terminus” value is listed as “++ ((++) fragments present for >5%)”, the “Intact Fragment: intact epitope found” value is recorded as “+”, the C-term. generation result is listed as “++ (abundant (++) present for >5%)” and the Intact in fragment entry is “+”.
Consider `CC[C@H](C)[C@H](NC(=O)[C@@H]1CCCN1C(=O)[C@H](CCC(=O)O)NC(=O)[C@@H]1CCCN1C(=O)[C@H](CC(=O)O)NC(=O)[C@H](Cc1ccc(O)cc1)NC(=O)[C@H](Cc1ccccc1)NC(=O)[C@@H](N)[C@@H](C)O)C(=O)N[C@@H](CC(C)C)C(=O)O`, for which the “Processing C-term: generation by proteasome-mediated digestion of fragments containing the correct C-terminus” value is recorded as “-” and the “Intact Fragment: intact epitope found” value was “-”.
In the case of `CC(C)C[C@H](NC(=O)[C@H](CC(C)C)NC(=O)[C@H](CCC(=O)O)NC(=O)[C@H](CCCNC(=N)N)NC(=O)[C@H](CC(C)C)NC(=O)[C@H](CCCNC(=N)N)NC(=O)[C@H](C)NC(=O)[C@H](Cc1c[nH]cn1)NC(=O)[C@H](CC(C)C)NC(=O)[C@@H](N)Cc1ccc(O)cc1)C(=O)O`, the “Processing C-term: generation by proteasome-mediated digestion of fragments containing the correct C-terminus” value is listed as “+ ((+) present for <5%)”, the “Intact Fragment: intact epitope found” value is on record as “+”, the C-term. generation entry was “+ (low abundant (+) present for <5%)” and the Intact in fragment result was “+”.
